According to patent US20040023884A1, “Biologically active peptides from functional domains of bactericidal/permeability-increasing protein and uses thereof” (priority 1993, published 2004):
Values after ≈ are worked out from the molar mass of the structure shown. Bridge positions count the residues as written; N and C are the ends. Square brackets hold non-standard residues; d marks the D form. Ends that are not written are not given here. Peptide text beside a SMILES is read from it. 1Nal = N[C@@H](Cc1cccc2ccccc12)C(=O)O

Key:
[1] = 3H-heparin binding assay (affinity and capacity)
Summary of the method: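 Bound 3H-heparin was counted by liquid scintillation after 1 h incubation at 4 °C with fragments immobilised on PVDF-bottomed wells, then washing in blocking buffer. Signal was corrected for BSA-related background, and varying amounts of rBPI23 were used as positive control.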

Staphylococcus aureus = test: Radial diffusion bactericidal assay, Staphylococcus aureus; type: cell-based; conditions: radial diffusion; PROBIT analysis; S. aureus
RAW 264.7 cells = test: LPS neutralization cellular proliferation assay, RAW 264.7 cells; type: cell-based, mouse
Description: In this assay, mouse RAW 264.7 cells (ATCC Accession No. T1B71), maintained in RPMI 1640 media (GIBCO), supplemented with 10 mM HEPES buffer (pH 7.4), 2 mM L-glutamine, penicillin (100U/mL), streptomcin (100 μg/mL), 0.075% sodium bicarbonate, […] 2-mercaptoethanol and 10% fetal bovine serum (Hyclone, Inc., Logan, Utah), were first induced by incubation in the presence of 50U/mL recombinant mouse y-interferon (Genzyme, Cambridge, Mass.) for 24 h prior to assay. Induced cells were then mechanically collected and centrifuged at 500×g at 4° C. and then resuspended in 50 mL RPMI 1640 media (without supplements), re-centrifuged and again resuspended in RPMI 1640 media (without supplements). The cells were counted and their concentration adjusted to 2×10^5 cells/mL and 100 μL aliquots were added to each well of a 96-well microtitre plate. The cells were then incubated for about 15 hours with E. coli O113 LPS (Control Standard. Assoc. of Cape Cod. Woods Hole, Mass.), which was added in 100 μL/well aliquots at a concentration of […] in serum-free RPMI 1640 media (this concentration being the result of titration experiments in which LPS concentration was varied between 50 pg/mL and 100 ng/mL). This incubation was performed in the absence or presence of BPI functional domain peptides in varying concentrations between 25 ng/mL and 50 μg/mL. Recombinant human BPI was used as a positive control at a concentration of 1 μg/mL. Cell proliferation was quantitatively measured by the addition of 1 μCi/well [^3H]-thymidine 5 hours after the time of initiation of the assay. After the 15-hour incubation, labeled cells were harvested onto glass fiber filters with a cell harvester (Inotech Biosystems, EQ-384, Sample Processing and Filter Counting System, Lansing, Mich.).

[2] = test system: rough mutant E. coli J5 bacteria; test: Radial diffusion bactericidal assay, E. coli J5; type: cell-based; conditions: radial diffusion; PROBIT analysis; E. coli J5 (rough)
Summary of the method: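 Log-phase bacteria (3 h at 37 °C in tryptic soy broth), washed in 10 mM sodium phosphate pH 7.4, were embedded at 4×10^6 CFU/mL in underlayer agarose. BPI proteolytic fragments (5 or 10 μL) went into 3 mm wells for 3 h at 37 °C, then agarose overlay and overnight 37 °C growth. Clear zones were measured by micrometer.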

[3] = test system: E. coli 0111:B4 (smooth) bacteria; test: Radial diffusion bactericidal assay, E. coli 0111:B4; type: cell-based; conditions: radial diffusion; PROBIT analysis; E. coli O111:B4 (smooth)
Candida albicans = type: cell-based

| Compound | Heparin Capacity ([1]; heparin bound at saturation) [ng] | Kd ([1]; read-out: Heparin Affinity) [nM] | pmol added to well to achieve a 30 mm^2 bactericidal zone, S. aureus (Staphylococcus aureus) | EC50 (peptide concentration at which the growth inhibitory effect of LPS was reversed by 50%) (RAW 264.7 cells) [µg/mL] | IC50 (peptide concentration at which RAW cell growth was inhibited by 50%) (RAW 264.7 cells) [µg/mL] | pmol added to well to achieve a 30 mm^2 bactericidal zone, E. coli J5 [2] | pmol added to well to achieve a 30 mm^2 bactericidal zone, E. coli O111:B4 [3] | MIC C. alb (Candida albicans) [µg/mL] |
| --- | --- | --- | --- | --- | --- | --- | --- | --- |
| CC[C@H](C)[C@H](N)C(=O)N[C@@H](CCCCN)C(=O)N[C@H](C(=O)N[C@@H](CO)C(=O)NCC(=O)N[C@@H](CCCCN)C(=O)N[C@@H](Cc1cccc2ccccc12)C(=O)N[C@@H](CCCCN)C(=O)N[C@@H](C)C(=O)N[C@@H](CCC(N)=O)C(=O)N[C@@H](Cc1ccccc1)C(=O)N[C@@H](CCCNC(=N)N)C(=O)N[C@@H](Cc1ccccc1)C(=O)N[C@@H](CC(C)C)C(=O)N[C@@H](CCCCN)C(=O)N[C@@H](CCCCN)C(=O)N[C@@H](CO)C(=O)N[C@@H](CCCCN)C(=O)N[C@H](C(=O)NCC(=O)N[C@@H](Cc1c[nH]c2ccccc12)C(=O)N[C@@H](CC(C)C)C(=O)N[C@H](C(=O)N[C@@H](Cc1ccccc1)C(=O)N[C@@H](CC(C)C)C(=O)N[C@@H](Cc1ccccc1)C(=O)N[C@@H](Cc1c[nH]cn1)C(=O)N[C@@H](CCCCN)C(=O)N[C@@H](CCCCN)C(=O)O)[C@@H](C)CC)C(C)C)[C@@H](C)CC [BPI.98] (H-IKISGK[1Nal]KAQFRFLKKSKVGWLIFLFHKK-OH) | 1678.4 | 683 | b (no detectable activity up to 5 μg/well) | 0.16 ± 0.08 | 16.5 ± 1.9 (≈ 4.62 µM) | 4,384.14 pmol | 63,709.98 pmol | – |
| CC(C)C[C@H](NC(=O)[C@H](Cc1ccccc1)NC(=O)[C@H](CCCNC(=N)N)NC(=O)[C@H](Cc1cccc2ccccc12)NC(=O)[C@H](Cc1cccc2ccccc12)NC(=O)[C@H](C)NC(=O)[C@H](CCCCN)NC(=O)[C@H](Cc1c[nH]c2ccccc12)NC(=O)[C@H](CCCCN)NC(=O)[C@H](CCCCN)NC(=O)[C@H](CC(C)C)NC(=O)[C@H](Cc1ccccc1)NC(=O)[C@H](CCCNC(=N)N)NC(=O)[C@H](CCCCN)NC(=O)[C@H](CCC(N)=O)NC(=O)[C@H](C)NC(=O)[C@H](CCCCN)NC(=O)[C@H](Cc1c[nH]c2ccccc12)NC(=O)[C@@H](N)CCCCN)C(=O)N[C@@H](CCCCN)C(=O)O [BPI.155] (H-KWKAQKRFLKKWKA[1Nal][1Nal]RFLK-OH; N-terminus and C-terminus assumed) | – | – | 5,530,185,440.73 pmol | – | – | 5,912.26 pmol | 53,027,986.44 pmol | >100.00 |
| CC[C@H](C)[C@H](NC(=O)[C@H](CC(C)C)NC(=O)[C@H](Cc1c[nH]c2ccccc12)NC(=O)CNC(=O)[C@@H](NC(=O)[C@H](CCCCN)NC(=O)[C@H](CO)NC(=O)[C@H](CCCCN)NC(=O)[C@H](CCCCN)NC(=O)[C@H](CC(C)C)NC(=O)[C@H](Cc1ccccc1)NC(=O)[C@H](CCCNC(=N)N)NC(=O)[C@H](Cc1cccc2ccccc12)NC(=O)[C@H](CCC(N)=O)NC(=O)[C@H](C)NC(=O)[C@H](CCCCN)NC(=O)[C@H](Cc1cccc2ccccc12)NC(=O)[C@@H](N)CCCCN)C(C)C)C(=O)N[C@@H](CCC(N)=O)C(=O)N[C@@H](CC(C)C)C(=O)N[C@@H](Cc1c[nH]c2ccccc12)C(=O)N[C@@H](Cc1c[nH]cn1)C(=O)N[C@@H](CCCCN)C(=O)N[C@@H](CCCCN)C(N)=O [BPI.159] (H-K[1Nal]KAQ[1Nal]RFLKKSKVGWLIQLWHKK-NH2; N-terminus and C-terminus assumed) | – | – | 14,387.00 pmol | – | – | 765.43 pmol | 152,678.66 pmol | 50.00 (≈ 15.9 µM) |
| CC(C)C[C@H](NC(=O)[C@H](Cc1ccccc1)NC(=O)[C@H](CCCNC(=N)N)NC(=O)[C@H](Cc1cccc2ccccc12)NC(=O)[C@H](CCC(N)=O)NC(=O)[C@H](C)NC(=O)[C@H](CCCCN)NC(=O)[C@H](Cc1cccc2ccccc12)NC(=O)[C@H](CCCCN)NC(=O)[C@H](CCCCN)NC(=O)[C@H](CC(C)C)NC(=O)[C@H](Cc1ccccc1)NC(=O)[C@H](CCCNC(=N)N)NC(=O)[C@H](Cc1cccc2ccccc12)NC(=O)[C@H](CCC(N)=O)NC(=O)[C@H](C)NC(=O)[C@H](CCCCN)NC(=O)[C@H](Cc1cccc2ccccc12)NC(=O)[C@@H](N)CCCCN)C(=O)N[C@@H](CCCCN)C(N)=O [BPI.160] (H-K[1Nal]KAQ[1Nal]RFLKK[1Nal]KAQ[1Nal]RFLK-NH2; N-terminus and C-terminus assumed) | – | – | 352,608.37 pmol | – | – | 288.78 pmol | 2,967.57 pmol | >100.00 |
| C[C@@H]1NC(=O)[C@H](CCCCN)NC(=O)[C@H](Cc2c[nH]c3ccccc23)NC(=O)[C@H](CCCCN)NC(=O)[C@@H](N)CSSC[C@@H](C(N)=O)NC(=O)[C@H](Cc2ccccc2)NC(=O)[C@H](CCCNC(=N)N)NC(=O)[C@H](CCCCN)NC(=O)[C@H](CCC(N)=O)NC1=O [BPI.169] (H-CKWKAQKRFC-NH2; disulfide 1-10; N-terminus and C-terminus assumed) | – | – | 17,281.61 pmol | – | – | 4,893.83 pmol | 36,025.95 pmol | >100.00 |
| KSKVGWLIQLFHKK [BPI.13p] | – | – | – | 2.0 ± 0.3 | >50 | – | – | – |
| KSKVKALIQLFHKK [BPI.161] | – | – | 100,476.32 pmol | – | – | 1,201.79 pmol | b (no detectable activity up to 5 μg/well) | 3.13 |
| KWKAQKRF [BPI.167] | – | – | b (no detectable activity up to 5 μg/well) | – | – | 25,489.99 pmol | b (no detectable activity up to 5 μg/well) | >50.00 |
